Experimental data taken from patent publication US6326476A, “Heparin derivatives and process for the preparation thereof” (Pharmacia AB, priority 1991, dated 2001).

System: Sprague-Dawley rats
Settings: rat, in vivo, 2 mg/kg
Procedure: Res 15 191-197 was performed in Sprague-Dawley rats weighing 200-250 g anaesthetized with Mebumal/Stesolid (Dumex A/S Copenhagen). The template device (Simplate, General Diagnostics, Durham, N.C.) was applied longitudinally to the dorsal part of the tail, taking care to avoid large veins. Blood from the wound was then carefully removed every 30 sec, with blotting paper. A minimum of six rats were used for each compound and dose. Bleeding times were measured from the moment the tail was incised until the first arrest of bleeding. The bleeding time was recorded with an accuracy of 30 sec. Two bleeding times were always determined in each rat, viz. 10 min before and 10 min after drug administration, and the results are expressed as the prolongation of bleeding time.

heparin [Standard heparin]
Prolongation of bleeding time: 12.8 min
